Experimental data as given in patent US20140356416A1, “LIPOSOMAL DRUG ENCAPSULATION” (priority 2011, published 2014).

What was measured:
[1] = Reverse pH gradient drug encapsulation efficiency in liposomes; assay type: physicochemical; settings: for drug encapsulation: reverse pH gradient technology, FIG. 10
Procedure: The dried lipid film was hydrated with a buffer containing either ammonium phosphate, ammonium sulfate, sodium phosphate, or sodium sulfate (300 mM, pH 7.4) and vortexed for 1 minute to remove any adhering lipid film. Sonication in a bath sonicator (ULTRAsonik 28X) for 1 minute at room temperature produced multilamellar vesicles (MLV). MLVs were then sonicated with a Ti-probe (Branson 450 sonifier) for 2 minutes to produce small unilamellar vesicles (SUV), indicated by the formation of a translucent solution. Extrusion through a 100 nm pore size polycarbonate filter (Whatman) was the final stage of a stepwise series of extrusions to reduce SUV size.
The prepared liposomes with internal buffer at pH 3 or 7.4 were passed through a Sephadex G-50 column equilibrated with HEPES buffered saline (HBS; 20 mM HEPES, 150 mM NaCl, pH 7.4) to exchange the external buffer. […] The solution was heated at 50° C. for 20 minutes, left to stand 4 hours at room temperature, and then applied to a Sephadex G-50 column and eluted with MilliQ water.

[2] = Acute toxicity of free staurosporine at high dose; assay type: in vivo; settings: 5 mg/Kg
Description: Future, more comprehensive studies will use even lower doses of staurosporine alone, and in combination with other agents.

U87 cells = assay: In vivo anti-tumor activity, very large U87 flank tumors (180-200 mm^3); settings: treatment over two weeks
[3] = 0.8 mg/Kg injected as free drug, 'would very likely be' (Gurley et al.); cited from earlier work

Compound | drug encapsulation [1] | liposomal loading capacity, peak value ([1]; drug to lipid ratio 0.09 (mole/mole)) [%] | increase of encapsulation when a gradient existed ([1]; internal buffer pH 7.4 versus pH 3, external buffer pH 3) [fold] | encapsulation rate ([1]; internal pH 5, external pH 7.4) | acute toxicity [2] | body weight (U87 cells) | tumor growth (U87 cells; relative to PBS (p<0.004)) | fraction cleared after one circulatory pass [3] [%]
O=c1cc(N2CCOCC2)oc2c(-c3ccccc3)cccc12 [LY29004] | good efficacy |  |  |  |  |  |  | 
CN[C@@H]1C[C@H]2O[C@@](C)([C@@H]1OC)n1c3ccccc3c3c4c(c5c6ccccc6n2c5c31)C(=O)NC4 [staurosporine, (9S,10R,11R,13R)-2,3,10,11,12,13-Hexahydro-10-methoxy-9-methyl-11-(methylamino)-9,13-epoxy-1H,9H-diindolo[1,2,3-gh:3′,2′,1′-1m]pyrrolo[3,4-j][1,7]benzodiazonin-1-one] |  | 70 | 14 | very low | acutely lethal | body weight did decline | no demonstrable effect | 99
COc1cc2ncnc(Nc3ccc(F)c(Cl)c3)c2cc1OCCCN1CCOCC1 [Gefitinib, N-(3-chloro-4-fluoro-phenyl)-7-methoxy-6-(3-morpholin-4-ylpropoxy)quinazolin-4-amine] | good efficacy |  |  |  |  |  |  | 
